From article PMC6150173, “Tryptophan-Containing Cyclic Decapeptides with Activity against Plant Pathogenic Bacteria” (Molecules : A Journal of Synthetic Chemistry and Natural …, 2017)
Peptide text beside a SMILES is read from it.

What was measured:
[1] = tested on: Erwinia amylovora PMV6076; experiment: Antibacterial activity (MIC), in vitro growth inhibition; assay type: cell-based; conditions: Table S1, MIC range
Outline: (§1)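 MIC determined by in vitro growth inhibition across 0.8, 1.6, 3.1, 6.2, 12.5, 25 and 50 μM peptide. Strains tested: E. amylovora PMV6076, P. syringae pv. syringae EPS94 and X. axonopodis pv. vesicatoria 2133-2.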

[2] = tested on: Pseudomonas syringae pv. syringae EPS94; experiment: as above; assay type: cell-based; conditions: Table S1, MIC range
Outline: as §1

[3] = tested on: Xanthomonas axonopodis pv. vesicatoria 2133-2; assay type: cell-based; conditions: Table S1, MIC range
Outline: as §1

[4] = tested on: erythrocyte suspensions of human blood; experiment: Hemolytic activity, hemoglobin release; assay type: cell-based; conditions: human blood erythrocytes 5% v/v, absorbance 540 nm, percentage compared to melittin, three replicates; for Hemolysis (%) at 50 µM: peptide 50 μM (table prints 50 µM); for Hemolysis (%) at 125 µM: peptide 125 μM (table prints 125 µM)
Method: The hemolytic activity of the compounds was evaluated at 50 and 125 μM by determining hemoglobin release from erythrocyte suspensions of human blood (5% v/v) (Oxoid) using absorbance at 540 nm, as previously described. Three replicates for each peptide concentration were used.

[5] = tested on: Pseudomonas syringae pv. syringae, Xanthomonas axonopodis pv. vesicatoria, and Erwinia amylovora; conditions: cited from earlier work
Description: Combinatorial chemistry constitutes a powerful tool to obtain peptides with improved biological activity against plant pathogens. In particular, we have employed this methodology to design and synthesize a library of cyclic decapeptides with general structure c(X5-Phe-X3-Gln) where X is Lys or Leu. Analysis of internal structural features together with a design of experiments (DOE) allowed establishing the sequence pattern for an optimal biological activity, i.e., c(X^1X^2X^3X^4LysPheLysLysLeuGln) where X^2 ≠ X^3 and X^4 = Lys. […] Cyclic peptides are preferred candidates due to their high conformational rigidity and proteolytic stability. In a previous work, a library of 66 Phe-containing cyclic decapeptides was synthesized from which sequences with high activity against E. amylovora, P. syringae pv. syringae, and X. axonopodis pv. vesicatoria were identified, highlighting c(LysLysLeuLysLysPheLysLysLeuGln) ... || The results obtained support the notion that subtle changes in a peptide sequence may lead to a significant modification of its biological activity. Thus, for example, the Phe→Trp substitution in the lead peptides c(LysLysLeuLysLysPheLysLysLeuGln) (BPC194) and c(LysLeuLysLysLysPheLysLysLeuGln) (BPC198) caused a reduction of the activity. […]

Compound	MIC Ea [1]	MIC Pss [2]	MIC Xav [3]	Hemolysis (%) at 50 µM [4]	Hemolysis (%) at 125 µM [4]	antibacterial activity in words, Phe peptides [5]
CC(C)C[C@@H]1NC(=O)[C@H](CCCCN)NC(=O)[C@H](CC(C)C)NC(=O)[C@H](CC(C)C)NC(=O)[C@H](CCCCN)NC(=O)[C@H](CCC(N)=O)NC(=O)[C@H](CCCCN)NC(=O)[C@H](CCCCN)NC(=O)[C@H](CCCCN)NC(=O)[C@H](Cc2c[nH]c3ccccc23)NC1=O [BPC154W, c(KLLKLWKKKQ)] (cyclo(KKKQKLLKLW))	25 to 50 µM	3.1 to 6.2 µM	1.6 to 3.1 µM	4%	7%	
CC(C)C[C@@H]1NC(=O)[C@H](CCCCN)NC(=O)[C@H](CCCCN)NC(=O)[C@H](CC(C)C)NC(=O)[C@H](CC(C)C)NC(=O)[C@H](CCC(N)=O)NC(=O)[C@H](CCCCN)NC(=O)[C@H](CCCCN)NC(=O)[C@H](CCCCN)NC(=O)[C@H](Cc2c[nH]c3ccccc23)NC1=O [BPC158W, c(LLKKLWKKKQ)] (cyclo(KKKQLLKKLW))	12.5 to 25 µM	12.5 to 25 µM	1.6 to 3.1 µM	10%	14%	
CC(C)C[C@@H]1NC(=O)[C@H](CCCCN)NC(=O)[C@H](CCCCN)NC(=O)[C@H](Cc2c[nH]c3ccccc23)NC(=O)[C@H](CCCCN)NC(=O)[C@H](CC(C)C)NC(=O)[C@H](CC(C)C)NC(=O)[C@H](CC(C)C)NC(=O)[C@H](CCCCN)NC(=O)[C@H](CCC(N)=O)NC1=O [BPC184W, c(KLLLKWKKLQ)] (cyclo(KKLQKLLLKW))	25 to 50 µM	3.1 to 6.2 µM	1.6 to 3.1 µM	22%	32%	
CC(C)C[C@@H]1NC(=O)[C@H](CCCCN)NC(=O)[C@H](CCCCN)NC(=O)[C@H](Cc2c[nH]c3ccccc23)NC(=O)[C@H](CCCCN)NC(=O)[C@H](CC(C)C)NC(=O)[C@H](CC(C)C)NC(=O)[C@H](CCCCN)NC(=O)[C@H](CC(C)C)NC(=O)[C@H](CCC(N)=O)NC1=O [BPC192W, c(LKLLKWKKLQ)] (cyclo(KKLQLKLLKW))	25 to 50 µM	12.5 to 25 µM	6.2 to 12.5 µM	13%	17%	
CC(C)C[C@@H]1NC(=O)[C@H](CCCCN)NC(=O)[C@H](CCCCN)NC(=O)[C@H](CCC(N)=O)NC(=O)[C@H](CC(C)C)NC(=O)[C@H](CCCCN)NC(=O)[C@H](CCCCN)NC(=O)[C@H](Cc2c[nH]c3ccccc23)NC(=O)[C@H](CCCCN)NC(=O)[C@H](CCCCN)NC1=O [BPC194W, c(KKLKKWKKLQ)] (cyclo(KKLKKWKKLQ))	12.5 to 25 µM	12.5 to 25 µM	6.2 to 12.5 µM	3%	5%	
CC(C)C[C@@H]1NC(=O)[C@H](CCCCN)NC(=O)[C@H](CCCCN)NC(=O)[C@H](Cc2c[nH]c3ccccc23)NC(=O)[C@H](CCCCN)NC(=O)[C@H](CCCCN)NC(=O)[C@H](CCCCN)NC(=O)[C@H](CC(C)C)NC(=O)[C@H](CCCCN)NC(=O)[C@H](CCC(N)=O)NC1=O [BPC198W, c(KLKKKWKKLQ)] (cyclo(KKKWKKLQKL))	25 to 50 µM	25 to 50 µM	3.1 to 6.2 µM	2%	4%	
cyclo(LKKKKFLLKQ) [BPC108]						poorly active
cyclo(LKKKLFKKLQ) [BPC086]						poorly active
